# Assay results as given in patent US20240366540A1, “MITOFUSIN INHIBITORS AND USES THEREOF” (Albert Einstein College of Medicine, priority 2021, published 2024).
# Columns and labels:
# MEFs [1] = experiment: DNA damage, yH2AX immunofluorescence in MEFs; type: cell-based, mouse; details: 6 h
# Experimental: Immunofluorescent analysis and microscopy. […] After treatments, cells were washed with PBS and fixed with 4% PFA for 15 min. […] After incubation with primary antibodies, cells were washed with PBS and incubated with the appropriate mouse secondary antibody (ThermoFisher Scientific; A-11001) in the blocking solution. After PBS washes, coverslips were dipped in water and mounted on glass slides using Vectashield containing DAPI (Vector laboratories). […] Data were analyzed with ImageJ.
# MEFs [2] = experiment: Metabolomics (TCA cycle carboxylic acids, NAD, NADH); type: cell-based, mouse; details: UPLC-MRM/MS
# Experimental: Metabolomics. […] Cells were harvested using a cell scraper and centrifuged at 1200 rpm in 4° C. for 3 min. Each cell pellet sample was suspended into 250 to 700 μL of 80% aqueous methanol in an Eppendorf tube. The samples were vortex mixed for 15 s and sonicated in an ice-water bath for 5 min, followed by centrifugal clarification at 15,000 rpm and 5° C. in an Eppendorf […] centrifuge. The clear supernatants were collected. A standard stock solution of TCA cycle carboxylic acids, NAD and NADH was prepared in 80% methanol as S1. This standard solution S1 was serially diluted 1 to 4 (v/v) with the same solvent to make standard solutions S2 to S10. 20 μL of each standard solution and an aliquot of the clear supernatant from each cell was mixed with 20 μL of an internal standard solution containing 9 ^13C- or deuterium labeled analogues of the TCA cycle carboxylic acids (except isocitric acid), 20 μL of 200 mM 3-NPH solution and 20 μL of 150 mM of EDC solution. The mixtures were allowed to react at 30° C. for 30 min. After reaction, 120 μL of water was added to each solution. 10 μL of the resultant solutions was injected into a C18 UPLC column to quantitate the TCA cycle carboxylic acids by UPLC-MRM/MS with (-) ion detection, according to the procedure we described in a publication.
# [3] = system: mitochondrial biogenesis markers; experiment: Mitochondrial biogenesis markers by q-PCR; type: cell-based
# Experimental: Analysis of mitochondrial biogenesis-related genes by q-PCR. Total RNA was extracted by using RNeasy Mini Kit (Qiagen) followed by cDNA synthesis using the SuperScript IV VILO Master Mix (Thermo Scientific), both performed according to the manufacturer's protocol. q-PCR was performed using the following primers: For the q-PCR reaction, Power SYBR Green master mix (Thermo Scientific) was used according to the manufacturer's instructions. […] Rpl39 was used as housekeeping gene and 2^−ΔΔCT method was applied to determine the relative mRNAs expression.
# MEFs [4] = experiment: Mitochondrial depolarization assay (TMRE membrane potential); type: cell-based, mouse
# Experimental: Mitochondrial depolarization assay (mtΔΨ). MEFs (10^4 cells/well) were seeded in a 96-well black plate and treated with MASM7 or MFI8 for 6 hrs. Following treatments, cells were stained with 250 nM TMRE (Sigma; Cat. 87917) for 20 min at 37° C. Subsequently, cells were washed with thrice with PBS. Fluorescence intensity was detected by a M100 microplate reader (TECAN, Ex: 540 nm/Em: 579 nm).
# MEFs [5] = experiment: Mitochondrial respiration in cellulo (OCR, Seahorse XF24); type: cell-based, mouse; details: WT MEFs; MASM7 1 μM or MFI8 20 μM, 6 hrs
# Experimental: Mitochondrial respiration in cellulo. Mitochondrial oxygen consumption rates (OCR) were assessed using a XF24 Analyzer (Seahorse Biosciences, Billerica MA, USA). In brief, 3×10^4 MEFs were cultured in a XF24 cell culture microplate containing DMEM supplemented with 10% fetal bovine serum. […] OCR was normalized to cell number or total protein content per well for each condition tested.
# MOLM13 cells [6] = experiment: Caspase 3/7 activation in MOLM13 cells with AMG-176; type: cell-based; details: increasing concentrations of AMG-176 and MFI8
# Experimental: Caspase-3/7 activation assay. Cells (5×10^3 cells/well) were seeded in a 96-well white plate and treated with MASM7, MFI8. Caspase 3/7 activation was measured after 6 hr by addition of the Caspase-Glo 3/7 reagent according to the manufacturer's protocol (Promega). Luminescence was detected by a F200 PRO microplate reader (TECAN). Caspase assays were performed in at least triplicate and the data normalized to vehicle-treated control wells. Dilutions of MASM7 or MFI8 were performed using a TECAN D300e Digital Dispenser from 10 mM stocks.
# cells = experiment: Cell death assay (Annexin V / propidium iodide); type: cell-based; details: for sensitization to BV6-induced cell death: in combination with BV6
# Experimental: (§1) Cell death assay. Cells (2×10^5 cells/well) were seeded in a 6-well plate and treated with the indicated drugs for 6 hours. Cells were dissociated using Accutase (Thermo Fisher; Cat. #00-4555-56) in order to avoid accidental exposure of phosphatidylserine on the outer plasma membrane. Cell death was evaluated with Dead Cell Apoptosis Kit with Annexin V Alexa Fluor™ 488 & Propidium Iodide (Thermo Fisher; Cat. #V13241) according to manufacturer's protocol. Data was acquired by BD LSRII flow cytometer system using BD FACSDiva software. Data was analyzed by FlowJo (BD).
# MV-411 cells = experiment: Cell viability, leukemia cells; type: cell-based; details: MV-411, 72 hr, Cell titer Glo
# Experimental: (§2) Cell titer Glo was used to measure viability. Cells were treated with MFI8 for 72 hr (n=3, mean±SD).
# (§3) Cell viability assay. Cells (5×10^3 cells/well) were seeded in a 96-well white plate and treated with serial dilutions of MASM7 or MFI8. Cell viability was assayed after 72 hrs by addition of CellTiter-Glo reagent according to the manufacturer's protocol (Promega). Luminescence was measured using a F200 PRO microplate reader (TECAN). Viability assays were performed in at least triplicate and the data normalized to vehicle-treated control wells. Dilutions of MASM7 or MFI8 were performed using a TECAN D300e Digital Dispenser from 10 mM stocks.
# MOLM13 cells [7] = experiment: Cell viability, leukemia cells; type: cell-based; details: MOLM13, 72 hr, Cell titer Glo
# Experimental: as §2, §3
# SKML-30 cells = experiment: Cell viability, melanoma cells; type: cell-based; details: SKML-30, 72 hr, Cell titer Glo
# Experimental: as §2, §3
# A375 cells = experiment: Cell viability, melanoma cells; type: cell-based; details: A375, 72 hr, Cell titer Glo
# Experimental: as §2, §3
# U2OS cells = experiment: Cell death with BV6 in U2OS cells; type: cell-based
# Experimental: as §1
smiles,measurement,setting,value
"Cc1cccc(NC(C)c2cc(Cl)ccc2O)c1C (centres unmarked) [MFI8, 4-Chloro-2-(1-((2,3-dimethylphenyl)amino)ethyl)phenol]",DNA damage (yH2AX foci),MEFs [1]; MFN1/MFN2 DKO MEFs,not in MFN1/MFN2 DKO MEFs
same,DNA damage (yH2AX foci),MEFs [1]; WT MEFs,increased yH2AX foci in WT MEFs
same,metabolites of the TCA cycle,MEFs [2],"markedly reduced several metabolites such as malate, oxaloacetate, and α-ketoglutarate"
same,gene expression levels of mitochondrial biogenesis markers,[3],no alteration
same,mitochondrial membrane potential (TMRE),MEFs [4]; MFN1/MFN2 DKO MEFs reconstituted with L692A MFN2,not when reconstituted with L692A MFN2
same,mitochondrial membrane potential (TMRE),MEFs [4]; MFN1/MFN2 DKO MEFs reconstituted with WT MFN2,significantly decreased mitochondrial membrane potential
same,mitochondrial membrane potential (TMRE),"MEFs [4]; WT MEFs, 6 hrs",concentration responsively decreased mitochondrial membrane potential
same,respiration and mitochondrial ATP production (OCR),MEFs [5],reduced respiration and mitochondrial ATP production
same,caspase 3/7 activation in response to AMG-176,MOLM13 cells [6],sensitizes cells to caspase activation
same,percentage of dead cells,"cells; compound alone, upon caspase 3/7 activation",did not increase the percentage of dead cells
same,sensitization to BV6-induced cell death,cells,potentiated the capacity of BV6 to induce cell death
same,sensitization to BV6-induced cell death,cells; deletion of MFN1/2 and APAF,abolished the capacity of MFI8 to sensitize cells to BV6 treatment
same,viability,MV-411 cells,concentration responsively reduces viability
same,viability,MOLM13 cells [7],concentration responsively reduces viability
same,viability,SKML-30 cells,concentration responsively reduces viability
same,viability,A375 cells,concentration responsively reduces viability
same,cell death in combination with BV6,U2OS cells,synergistically induce cell death
